Measurements taken from article PMC2096529 (Purinergic Signalling, 2005).

How the values were obtained:
Assay in all cases: Fluo-3 calcium mobilization, FLIPR, […]1 cells
Type in all cases: cell-based
[1] = target: human P2Y6 receptor (Homo sapiens, UniProt Q15077)
[2] = target: human P2Y1 receptor (Homo sapiens, UniProt P47900)
[3] = target: human P2Y4 receptor (Homo sapiens, UniProt P51582)
[4] = target: human P2Y2 receptor (Homo sapiens, UniProt P41231)
Sequence of human P2Y2 receptor (P41231 whole entry): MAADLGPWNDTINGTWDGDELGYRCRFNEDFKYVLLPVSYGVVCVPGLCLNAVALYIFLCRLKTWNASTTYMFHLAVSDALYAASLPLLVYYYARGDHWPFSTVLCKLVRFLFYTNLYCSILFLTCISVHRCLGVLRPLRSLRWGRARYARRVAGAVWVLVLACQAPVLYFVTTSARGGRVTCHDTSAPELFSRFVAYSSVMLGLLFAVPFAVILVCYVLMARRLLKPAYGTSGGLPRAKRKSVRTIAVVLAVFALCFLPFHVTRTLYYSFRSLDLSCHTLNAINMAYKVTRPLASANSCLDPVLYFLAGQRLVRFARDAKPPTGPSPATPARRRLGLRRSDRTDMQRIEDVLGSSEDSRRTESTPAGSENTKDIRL

Sequence of human P2Y1 receptor (P47900 whole entry): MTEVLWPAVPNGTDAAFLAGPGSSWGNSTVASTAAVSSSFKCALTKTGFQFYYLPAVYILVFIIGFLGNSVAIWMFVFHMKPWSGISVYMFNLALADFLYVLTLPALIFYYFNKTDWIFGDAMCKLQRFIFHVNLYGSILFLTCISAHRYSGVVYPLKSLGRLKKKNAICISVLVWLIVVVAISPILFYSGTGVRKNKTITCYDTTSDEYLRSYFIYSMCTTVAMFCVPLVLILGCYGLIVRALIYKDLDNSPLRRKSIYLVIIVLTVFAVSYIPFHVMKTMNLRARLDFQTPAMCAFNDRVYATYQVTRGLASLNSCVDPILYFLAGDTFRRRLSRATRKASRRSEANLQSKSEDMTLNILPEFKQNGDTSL
Sequence of human P2Y4 receptor (P51582 whole entry): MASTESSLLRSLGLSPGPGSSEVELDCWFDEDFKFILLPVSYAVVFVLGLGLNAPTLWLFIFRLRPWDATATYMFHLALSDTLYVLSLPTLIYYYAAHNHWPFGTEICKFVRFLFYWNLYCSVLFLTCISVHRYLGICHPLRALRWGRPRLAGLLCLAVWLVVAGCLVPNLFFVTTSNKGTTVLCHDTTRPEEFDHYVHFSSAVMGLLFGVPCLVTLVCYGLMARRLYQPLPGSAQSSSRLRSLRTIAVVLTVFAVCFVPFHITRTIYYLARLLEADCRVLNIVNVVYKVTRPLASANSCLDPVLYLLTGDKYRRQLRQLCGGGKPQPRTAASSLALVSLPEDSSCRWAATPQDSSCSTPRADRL
Sequence of human P2Y6 receptor (Q15077 whole entry): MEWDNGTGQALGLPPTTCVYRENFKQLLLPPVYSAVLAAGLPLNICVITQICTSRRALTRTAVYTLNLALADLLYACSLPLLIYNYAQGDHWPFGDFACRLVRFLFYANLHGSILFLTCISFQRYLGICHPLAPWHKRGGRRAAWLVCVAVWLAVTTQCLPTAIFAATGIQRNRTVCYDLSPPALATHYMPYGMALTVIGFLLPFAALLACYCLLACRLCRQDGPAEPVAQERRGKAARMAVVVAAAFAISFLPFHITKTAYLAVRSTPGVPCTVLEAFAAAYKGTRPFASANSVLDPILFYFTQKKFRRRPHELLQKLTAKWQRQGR

Row | SMILES | EC50 [1] | EC50 [2] | EC50 [3] | EC50 [4]
1 | Nc1nc2c(ncn2[C@@H]2O[C@H](COP(=O)(O)OP(=O)(O)OP(=O)(O)OC[C@H]3O[C@@H](n4cnc5c(N)ncnc54)[C@H](O)[C@@H]3O)[C@@H](O)[C@H]2O)c(=O)[nH]1 [compound 28, AP3G] | 1530 nM | 120 nM | 520 nM | 230 nM
2 | Nc1ncnc2c1ncn2[C@@H]1O[C@H](COP(=O)(O)OP(=O)(O)OP(=O)(O)OC[C@H]2O[C@@H](n3cnc4c(=O)[nH]cnc43)[C@H](O)[C@@H]2O)[C@@H](O)[C@H]1O [compound 29, AP3I] | 1060 nM | 110 nM | 2550 nM | 1200 nM
3 | Nc1ccn([C@@H]2O[C@H](COP(=O)(O)OP(=O)(O)OP(=O)(O)OC[C@H]3O[C@@H](n4ccc(=O)[nH]c4=O)C[C@@H]3O)[C@@H](O)[C@H]2O)c(=O)n1 [compound 36, CP3dU] | 810 nM | 17000 nM | 40000 nM | 3100 nM
4 | Nc1ccn([C@@H]2O[C@H](COP(=O)(O)OP(=O)(O)OP(=O)(O)OP(=O)(O)OC[C@H]3O[C@@H](n4ccc(=O)[nH]c4=O)[C@H](O)[C@@H]3O)[C@@H](O)[C@@H]2O)c(=O)n1 [compound 50, UP4araC] | 3320 nM | 6130 nM | 220 nM | 590 nM
5 | Nc1ncnc2c1ncn2[C@H]1C[C@H](O)[C@@H](COP(=O)(O)OP(=O)(O)OP(=O)(O)OP(=O)(O)OC[C@H]2O[C@@H](n3ccc(=O)[nH]c3=O)[C@H](O)[C@@H]2O)O1 [compound 52, UP4dA] | 4200 nM | 3490 nM | 70 nM | 50 nM
